≈ marks a conversion by molar mass, not a printed value.
Assays:
[1] = molecular target: T1, COX-1 (Ovis aries, UniProt P05979); experiment: fluorometric COX-1 inhibitor screening kit assay; type: biochemical; settings: for SI (selectivity index): IC50 (COX-1)/IC50 (COX-2); for IC50: fluorometric kit, 25 °C; for Selectivity: isoform preferred according to SI
T1 construct: purchased Biovision K548-100
T1 sequence (P05979 25-600): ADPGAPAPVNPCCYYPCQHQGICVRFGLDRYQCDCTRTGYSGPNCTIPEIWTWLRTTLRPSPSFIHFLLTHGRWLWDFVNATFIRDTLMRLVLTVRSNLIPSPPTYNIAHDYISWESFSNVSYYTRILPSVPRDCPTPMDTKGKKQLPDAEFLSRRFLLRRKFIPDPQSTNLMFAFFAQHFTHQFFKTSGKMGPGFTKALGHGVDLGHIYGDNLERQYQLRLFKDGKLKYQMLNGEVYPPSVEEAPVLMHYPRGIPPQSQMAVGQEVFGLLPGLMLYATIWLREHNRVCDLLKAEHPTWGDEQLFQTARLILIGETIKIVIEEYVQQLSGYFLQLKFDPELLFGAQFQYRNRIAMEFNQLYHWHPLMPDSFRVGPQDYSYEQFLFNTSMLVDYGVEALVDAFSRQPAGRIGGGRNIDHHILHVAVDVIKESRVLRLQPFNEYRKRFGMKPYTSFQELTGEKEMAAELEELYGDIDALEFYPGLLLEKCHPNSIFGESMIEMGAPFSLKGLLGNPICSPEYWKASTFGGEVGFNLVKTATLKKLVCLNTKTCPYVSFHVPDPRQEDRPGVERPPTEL
Experimental: (§1) Inhibitory potency of the compounds against COX-1 and COX-2 enzymes was determined using fluorometric COX-1 and COX-2 inhibitor screening kits (Biovision, Zurich, Switzerland). Experimental protocol was followed as described in the guides of the supplier[47]^,[48]. All of the pipettings in the assay were performed by Biotek Precision robotic system (BioTek Instruments, Inc., Winooski, VT). […] Appropriate two points (T1 and T2) in the linear range of the plot were chosen, and the corresponding fluorescence values (RFU1 and RFU2) were obtained. The slope for all samples, including enzyme control (EC), by dividing the net ΔRFU (RFU2–RFU1) values by the time ΔT (T2–T1) were calculated by using following equation: % Relative inhibition=(Slope of EC-Slope of S/Slope of EC)×100
(§2) This initial in vitro assay was done with two concentrations (10^−3 and 10^−4 M) for all compounds. […] The IC50 value was calculated from the plots of enzyme activity against concentrations by applying regression analyses on GraphPad Prism Version 5 (GraphPad Software, La Jolla, CA).
(§3) Selectivity indexes (SI) were expressed as IC50 (COX-1)/IC50 (COX-2). Selectivity toward COX-2 decreases as the corresponding SI decreases while selectivity toward COX-1 isoform increases as the corresponding SI decreases.

[2] = molecular target: T2, COX-2 (Homo sapiens, UniProt P35354); experiment: fluorometric COX-2 inhibitor screening kit assay; type: biochemical; settings: 25 °C
T2 construct: purchased Biovision K547-100
T2 sequence (P35354 18-604): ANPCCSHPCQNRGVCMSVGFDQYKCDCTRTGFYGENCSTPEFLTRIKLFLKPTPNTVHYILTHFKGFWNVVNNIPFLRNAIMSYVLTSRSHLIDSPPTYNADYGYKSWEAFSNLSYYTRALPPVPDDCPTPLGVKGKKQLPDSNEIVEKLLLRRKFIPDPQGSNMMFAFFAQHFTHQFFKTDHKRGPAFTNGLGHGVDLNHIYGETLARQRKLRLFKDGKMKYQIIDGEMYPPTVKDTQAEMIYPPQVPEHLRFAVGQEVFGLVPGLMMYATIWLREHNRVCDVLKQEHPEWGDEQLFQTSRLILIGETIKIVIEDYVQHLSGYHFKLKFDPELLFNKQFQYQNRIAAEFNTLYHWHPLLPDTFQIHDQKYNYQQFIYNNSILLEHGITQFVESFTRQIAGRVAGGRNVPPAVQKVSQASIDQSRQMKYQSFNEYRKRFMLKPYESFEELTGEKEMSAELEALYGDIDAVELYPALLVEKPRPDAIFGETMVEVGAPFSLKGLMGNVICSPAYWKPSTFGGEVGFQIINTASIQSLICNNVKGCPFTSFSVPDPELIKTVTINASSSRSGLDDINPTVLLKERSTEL
Experimental: as §1, §2, §3

[3] = tested on: Enterococcus faecalis (ATCC 29212); experiment: broth microdilution MIC (CLSI M07-A9), resazurin; type: cell-based; settings: ATCC29212, 24 h
Experimental: (§4) Microbiological studies were performed according to following guides: CLSI reference […]-A9 broth microdilution method[49] for bacterial strains and EUCAST definitive (EDef 7.1) method[50] for Candida species. Synthesized compounds were tested for their in vitro growth inhibitory activity against Staphylococcus aureus (ATCC 25923), Enterococcus faecalis (ATCC 29212), Listeria monocytogenes (ATCC 1911), Klebsiella pneumoniae (NCTC 9633), Escherichia coli (ATCC 35218), E. coli (ATCC 25922) Candida albicans (ATCC 24433) Candida krusei (ATCC 6258) and Candida parapsilosis (ATCC 22019). Chloramphenicol and ketoconazole were used as control drugs. The cultures were obtained from the Mueller-Hinton broth (Difco) for the bacterial strains after overnight incubation at 37 °C. The yeasts were maintained in Roswell Park Memorial Institute (RPMI) after overnight incubation at 37 °C. […] Testing was carried out in Mueller-Hinton broth and RPMI at pH =7, and the two-fold serial dilutions technique was applied. The last well on the microplates containing only inoculated broth was kept as controls and the last well with no growth of microorganism was recorded to represent the minimum inhibitory concentration (MIC) expressed in μg/mL. For both the antibacterial and antifungal assays, the compounds were dissolved in DMSO. […] The completed plates were incubated for 24 h. At the end of the incubation, resazurin (20 μg/mL) was added into each well and plates were incubated for 2 h. MIC values were determined using a microplate reader at […]. Synthesized compounds (6a-6m) were evaluated for antimicrobial activity against various microorganisms such as Staphylococcus aureus (ATCC 25923), Enterococcus faecalis (ATCC 29212), Listeria monocytogenes (ATCC 1911), Klebsiella pneumoniae (NCTC 9633), Escherichia coli (ATCC 35218), E. coli (ATCC 25922)Candida albicans (ATCC 24433) Candida krusei (ATCC 6258) and Candida parapsilosis (ATCC 22019). […] Chloramphenicol and ketoconazole were used as standard drugs in the activity test. […] Besides, the compounds 6d, 6h, 6l and 6m indicated stronger antibacterial activity than the other compounds in the series.

[4] = tested on: Escherichia coli (ATCC 25922); experiment: broth microdilution MIC (CLSI M07-A9), resazurin; type: cell-based; settings: ATCC25922, 24 h, read-out: MIC Ec-2
Experimental: as §4

[5] = tested on: Escherichia coli (ATCC 35218); experiment: broth microdilution MIC (CLSI M07-A9), resazurin; type: cell-based; settings: ATCC35218, 24 h, read-out: MIC Ec-1
Experimental: as §4

[6] = tested on: Klebsiella pneumoniae (NCTC 9633); experiment: broth microdilution MIC (CLSI M07-A9), resazurin; type: cell-based; settings: 24 h
Experimental: as §4

[7] = tested on: Listeria monocytogenes (ATCC 1911); experiment: broth microdilution MIC (CLSI M07-A9), resazurin; type: cell-based; settings: ATCC1911, 24 h
Experimental: as §4

[8] = tested on: Staphylococcus aureus (ATCC 25923); experiment: broth microdilution MIC (CLSI M07-A9), resazurin; type: cell-based; settings: ATCC25923, 24 h
Experimental: as §4

[9] = tested on: Candida albicans (ATCC 24433); experiment: broth dilution MIC (EUCAST EDef 7.1), resazurin; type: cell-based; settings: ATCC24433, 24 h
Experimental: as §4

[10] = tested on: Candida krusei (ATCC 6258); experiment: broth dilution MIC (EUCAST EDef 7.1), resazurin; type: cell-based; settings: Pichia kudriavzevii, ATCC6258, 24 h
Experimental: as §4

[11] = tested on: Candida parapsilosis (ATCC 22019); experiment: broth dilution MIC (EUCAST EDef 7.1), resazurin; type: cell-based; settings: ATCC22019, 24 h
Experimental: as §4

[12] = MTT cytotoxicity test; settings: mouse
Experimental: NIH/3T3 cells were incubated according to the supplier’s recommendations. NIH/3T3 cells were seeded at 1 × 10^4 cells into each well of 96-well plates. MTT assay was performed as previously described[51]^,[52].
There are a number of requirements to be fulfilled for successful new drug development. […] This assay is based upon the reduction of yellow MTT dye by metabolically active eukaryotic and prokaryotic cells to form the purple formazan product. The assay is generally used to examine cell viability and to estimate cell culture growth[66]^,[67].

In the case of CC(C(=O)O)c1ccc(CSc2nc3ccccc3[nH]2)cc1 (centres unmarked) [Compound 6i, 2-(4-(((1H-benzo[d]imidazol-2-yl)thio)methyl)phenyl)propanoic acid], the “SI (selectivity index)” value [1] is reported as 0.62, the IC50 [1] is reported as 5.9 µM and the Selectivity [1] is reported as “COX-1”. The IC50 [2] was 9.56 µM, the MIC [3] was 12.5 µg/mL (≈ 40 µM) and the MIC [4] was 12.5 µg/mL (≈ 40 µM). For the same compound, the MIC [5] was 6.25 µg/mL (≈ 20 µM), the “MIC Kp” value [6] was 6.25 µg/mL (≈ 20 µM) and the MIC [7] was 12.5 µg/mL (≈ 40 µM). It also gave an MIC [8] of 12.5 µg/mL (≈ 40 µM), an MIC [9] of 100 µg/mL (≈ 320 µM) and an MIC [10] of 100 µg/mL (≈ 320 µM). For the same compound, the MIC [11] was 50 µg/mL (≈ 160 µM) and the melting point was 208.7 to 210.9 °C.
For Cc1ccc2[nH]c(SCc3ccc(C(C)C(=O)O)cc3)nc2c1 (centres unmarked) [Compound 6j, 2-(4-(((5-Methyl-1H-benzo[d]imidazol-2-yl)thio)methyl)phenyl)propanoic acid], the “SI (selectivity index)” value [1] was 0.58, the IC50 [1] was 4.4 µM and the Selectivity [1] was “COX-1”. It also gave an IC50 [2] of 7.53 µM, an MIC [3] of 12.5 µg/mL (≈ 38.3 µM) and an MIC [4] of 12.5 µg/mL (≈ 38.3 µM). For the same compound, the MIC [5] was 6.25 µg/mL (≈ 19.1 µM), the “MIC Kp” value [6] was 6.25 µg/mL (≈ 19.1 µM) and the MIC [7] was 12.5 µg/mL (≈ 38.3 µM). It also gave an MIC [8] of 12.5 µg/mL (≈ 38.3 µM), an MIC [9] of 100 µg/mL (≈ 306 µM) and an MIC [10] of 100 µg/mL (≈ 306 µM). The MIC [11] was 50 µg/mL (≈ 153 µM) and the melting point was 209.1 to 211.6 °C.
With CC(C(=O)O)c1ccc(CSc2nc3cc(Cl)ccc3[nH]2)cc1 (centres unmarked) [Compound 6k, 2-(4-(((5-Chloro-1H-benzo[d]imidazol-2-yl)thio)methyl)phenyl)propanoic acid] the “SI (selectivity index)” value [1] was 0.63, the IC50 [1] was 3.71 µM and the Selectivity [1] was “COX-1”. It also gave an IC50 [2] of 5.91 µM, an MIC [3] of 12.5 µg/mL (≈ 36 µM) and an MIC [4] of 12.5 µg/mL (≈ 36 µM). For the same compound, the MIC [5] was 6.25 µg/mL (≈ 18 µM), the “MIC Kp” value [6] was 6.25 µg/mL (≈ 18 µM) and the MIC [7] was 12.5 µg/mL (≈ 36 µM). The MIC [8] was 12.5 µg/mL (≈ 36 µM), the MIC [9] was 50 µg/mL (≈ 144 µM) and the MIC [10] was 50 µg/mL (≈ 144 µM). The MIC [11] was 50 µg/mL (≈ 144 µM) and the melting point was 208.8 to 211.5 °C.
With CC(C(=O)O)c1ccc(CSc2nc3cc([N+](=O)[O-])ccc3[nH]2)cc1 (centres unmarked) [Compound 6m, 2-(4-(((5-Nitro-1H-benzo[d]imidazol-2-yl)thio)methyl)phenyl)propanoic acid] the “SI (selectivity index)” value [1] was 0.52, the IC50 [1] was 4.48 µM and the Selectivity [1] was “COX-1”. For the same compound, the IC50 [2] was 8.66 µM, the MIC [3] was 6.25 µg/mL (≈ 17.5 µM) and the MIC [4] was 6.25 µg/mL (≈ 17.5 µM). The MIC [5] was 6.25 µg/mL (≈ 17.5 µM), the “MIC Kp” value [6] was 6.25 µg/mL (≈ 17.5 µM) and the MIC [7] was 12.5 µg/mL (≈ 35 µM). It also gave an MIC [8] of 6.25 µg/mL (≈ 17.5 µM), an MIC [9] of 50 µg/mL (≈ 140 µM) and an MIC [10] of 50 µg/mL (≈ 140 µM). For the same compound, the MIC [11] was 50 µg/mL (≈ 140 µM) and the melting point was 176.5 to 178.7 °C.
With CC(C)Cc1ccc(C(C)C(=O)O)cc1 (centres unmarked) [Ibuprofen, reference compound] the IC50 [12] was no less than 1000 µM.
Work on CS(=O)(=O)Nc1ccc([N+](=O)[O-])cc1Oc1ccccc1 [Nimesulide, reference compound] yielded an IC50 [1] of 4.28 µM and an IC50 [12] of no less than 1000 µM.

From PMC6445163, “Design, synthesis, and evaluation of novel 2-phenylpropionic acid derivatives as dual COX inhibitory-antibacterial agents” (Journal of Enzyme Inhibition and Medicinal Chemistry, 2017)
